Columns and labels:
[1] = target: Beta-1 adrenergic receptor (Homo sapiens, UniProt P08588); format: functional
[2] = target: T1, 5-hydroxytryptamine receptor 2A (Homo sapiens, UniProt P28223); format: functional, cell-based
[3] = target: T1, 5-hydroxytryptamine receptor 2A; format: functional, cell-based; remark: listed apart in the source
[4] = target: T2, Alpha-1A adrenergic receptor (Homo sapiens, UniProt P35348); format: functional, cell-based
T2 sequence (P35348 whole entry): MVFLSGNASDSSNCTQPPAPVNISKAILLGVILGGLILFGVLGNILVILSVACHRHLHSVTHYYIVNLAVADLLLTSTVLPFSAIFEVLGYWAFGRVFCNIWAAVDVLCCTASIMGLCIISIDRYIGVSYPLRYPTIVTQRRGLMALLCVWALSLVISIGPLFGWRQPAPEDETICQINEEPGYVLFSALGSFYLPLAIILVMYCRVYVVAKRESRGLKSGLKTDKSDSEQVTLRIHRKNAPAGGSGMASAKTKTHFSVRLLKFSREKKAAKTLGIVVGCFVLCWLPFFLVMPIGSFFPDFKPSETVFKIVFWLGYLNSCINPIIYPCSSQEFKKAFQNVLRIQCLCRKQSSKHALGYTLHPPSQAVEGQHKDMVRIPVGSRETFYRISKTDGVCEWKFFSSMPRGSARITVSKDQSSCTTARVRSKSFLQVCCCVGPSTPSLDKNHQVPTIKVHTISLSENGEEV

Glucocorticoid receptor = target: T3, Glucocorticoid receptor (Homo sapiens, UniProt P04150)
T3 sequence (P04150 whole entry): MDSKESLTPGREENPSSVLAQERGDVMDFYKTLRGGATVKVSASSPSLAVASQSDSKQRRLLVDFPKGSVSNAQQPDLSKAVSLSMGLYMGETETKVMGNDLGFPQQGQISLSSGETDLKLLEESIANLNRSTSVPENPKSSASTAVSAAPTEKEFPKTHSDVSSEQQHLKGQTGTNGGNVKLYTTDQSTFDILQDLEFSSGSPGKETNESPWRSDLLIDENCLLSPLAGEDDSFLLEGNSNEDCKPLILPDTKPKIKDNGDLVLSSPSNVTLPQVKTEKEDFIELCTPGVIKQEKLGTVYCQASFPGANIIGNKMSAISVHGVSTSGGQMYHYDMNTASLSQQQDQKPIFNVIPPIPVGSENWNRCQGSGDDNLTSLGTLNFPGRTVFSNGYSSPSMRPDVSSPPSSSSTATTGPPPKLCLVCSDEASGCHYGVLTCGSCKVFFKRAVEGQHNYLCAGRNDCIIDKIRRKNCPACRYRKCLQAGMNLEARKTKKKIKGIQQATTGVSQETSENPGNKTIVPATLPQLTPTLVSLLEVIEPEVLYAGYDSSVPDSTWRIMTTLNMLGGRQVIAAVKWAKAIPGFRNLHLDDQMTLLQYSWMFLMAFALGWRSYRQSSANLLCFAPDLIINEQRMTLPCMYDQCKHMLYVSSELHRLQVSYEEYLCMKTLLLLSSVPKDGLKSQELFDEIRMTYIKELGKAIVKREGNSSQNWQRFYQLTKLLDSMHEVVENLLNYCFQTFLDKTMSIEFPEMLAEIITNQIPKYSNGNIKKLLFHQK

[5] = target: T2, Alpha-1A adrenergic receptor; format: functional, cell-based; remark: listed apart in the source
[6] = target: T4, Alpha-2A adrenergic receptor (Homo sapiens, UniProt P08913)
T4 sequence (P08913 whole entry): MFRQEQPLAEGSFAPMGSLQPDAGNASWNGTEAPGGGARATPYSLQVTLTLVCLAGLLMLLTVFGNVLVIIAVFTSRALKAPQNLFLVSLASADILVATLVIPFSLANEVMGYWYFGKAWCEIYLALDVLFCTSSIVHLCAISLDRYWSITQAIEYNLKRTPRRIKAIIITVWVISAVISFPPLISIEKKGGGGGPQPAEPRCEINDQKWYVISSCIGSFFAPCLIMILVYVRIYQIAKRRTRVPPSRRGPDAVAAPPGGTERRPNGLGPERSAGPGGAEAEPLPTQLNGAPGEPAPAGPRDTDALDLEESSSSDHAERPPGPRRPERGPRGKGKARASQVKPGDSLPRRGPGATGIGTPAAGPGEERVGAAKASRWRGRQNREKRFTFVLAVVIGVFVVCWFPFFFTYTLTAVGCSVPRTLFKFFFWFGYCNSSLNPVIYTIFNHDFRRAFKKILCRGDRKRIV

[7] = target: T5, Muscarinic acetylcholine receptor M2 (Homo sapiens, UniProt P08172)
T5 sequence (P08172 whole entry): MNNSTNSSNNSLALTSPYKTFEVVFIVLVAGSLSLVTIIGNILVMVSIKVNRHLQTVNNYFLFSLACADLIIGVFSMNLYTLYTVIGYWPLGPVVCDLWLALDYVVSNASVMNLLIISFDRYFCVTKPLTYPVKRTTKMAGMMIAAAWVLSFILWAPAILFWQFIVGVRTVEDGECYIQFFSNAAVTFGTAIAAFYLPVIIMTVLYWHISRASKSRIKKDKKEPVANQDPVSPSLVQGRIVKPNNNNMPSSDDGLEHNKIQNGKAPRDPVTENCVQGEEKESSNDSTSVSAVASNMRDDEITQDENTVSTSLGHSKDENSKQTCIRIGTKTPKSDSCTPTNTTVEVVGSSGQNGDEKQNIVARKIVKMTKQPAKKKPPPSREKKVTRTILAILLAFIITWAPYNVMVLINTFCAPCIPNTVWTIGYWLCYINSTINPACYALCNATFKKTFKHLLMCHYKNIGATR

[8] = target: Sodium-dependent noradrenaline transporter (Homo sapiens, UniProt P23975)
Sodium-dependent noradrenaline transporter, sequence (P23975 whole entry): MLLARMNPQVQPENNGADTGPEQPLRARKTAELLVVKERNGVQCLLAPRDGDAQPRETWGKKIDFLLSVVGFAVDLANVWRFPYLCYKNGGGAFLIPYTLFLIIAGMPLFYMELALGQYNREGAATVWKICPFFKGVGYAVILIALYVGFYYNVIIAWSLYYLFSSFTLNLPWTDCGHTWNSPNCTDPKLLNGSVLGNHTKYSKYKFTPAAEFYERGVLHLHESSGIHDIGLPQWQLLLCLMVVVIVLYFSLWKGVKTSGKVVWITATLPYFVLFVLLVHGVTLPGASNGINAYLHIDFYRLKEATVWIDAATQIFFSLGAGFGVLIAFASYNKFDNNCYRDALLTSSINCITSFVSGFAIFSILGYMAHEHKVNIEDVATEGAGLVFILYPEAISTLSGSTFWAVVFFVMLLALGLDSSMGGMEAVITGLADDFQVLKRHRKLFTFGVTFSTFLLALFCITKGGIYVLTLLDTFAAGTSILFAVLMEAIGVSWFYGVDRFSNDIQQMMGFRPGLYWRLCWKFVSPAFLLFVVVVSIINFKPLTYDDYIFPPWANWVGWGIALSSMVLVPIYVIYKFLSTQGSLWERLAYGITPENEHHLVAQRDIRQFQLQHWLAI

Thromboxane A2 receptor = target: T6, Thromboxane A2 receptor (Homo sapiens, UniProt P21731); format: functional, cell-based
T6 sequence (P21731 whole entry): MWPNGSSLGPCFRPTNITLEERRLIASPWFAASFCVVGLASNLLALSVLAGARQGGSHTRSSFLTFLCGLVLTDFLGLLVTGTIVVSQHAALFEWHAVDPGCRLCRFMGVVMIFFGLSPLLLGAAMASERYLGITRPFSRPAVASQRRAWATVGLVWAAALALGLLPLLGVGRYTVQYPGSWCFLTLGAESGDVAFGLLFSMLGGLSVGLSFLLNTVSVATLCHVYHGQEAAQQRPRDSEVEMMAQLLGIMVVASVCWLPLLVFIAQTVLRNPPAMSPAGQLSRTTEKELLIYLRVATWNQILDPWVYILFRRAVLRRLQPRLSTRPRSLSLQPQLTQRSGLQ
Also: assay procedure not described here.

T1 sequence (P28223 whole entry): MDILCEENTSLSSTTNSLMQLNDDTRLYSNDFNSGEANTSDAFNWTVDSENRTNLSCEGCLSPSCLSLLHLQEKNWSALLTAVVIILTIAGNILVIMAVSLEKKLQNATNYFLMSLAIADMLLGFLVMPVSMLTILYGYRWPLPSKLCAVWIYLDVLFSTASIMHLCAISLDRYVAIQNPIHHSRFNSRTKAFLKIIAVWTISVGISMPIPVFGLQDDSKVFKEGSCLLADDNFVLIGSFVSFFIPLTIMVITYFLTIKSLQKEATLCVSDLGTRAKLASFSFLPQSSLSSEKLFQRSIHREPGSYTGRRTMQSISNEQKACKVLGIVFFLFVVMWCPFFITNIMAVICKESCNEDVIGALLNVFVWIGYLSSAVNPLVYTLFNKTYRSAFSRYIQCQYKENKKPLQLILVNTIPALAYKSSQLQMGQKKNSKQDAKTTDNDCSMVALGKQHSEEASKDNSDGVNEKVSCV
Beta-1 adrenergic receptor, sequence (P08588 whole entry): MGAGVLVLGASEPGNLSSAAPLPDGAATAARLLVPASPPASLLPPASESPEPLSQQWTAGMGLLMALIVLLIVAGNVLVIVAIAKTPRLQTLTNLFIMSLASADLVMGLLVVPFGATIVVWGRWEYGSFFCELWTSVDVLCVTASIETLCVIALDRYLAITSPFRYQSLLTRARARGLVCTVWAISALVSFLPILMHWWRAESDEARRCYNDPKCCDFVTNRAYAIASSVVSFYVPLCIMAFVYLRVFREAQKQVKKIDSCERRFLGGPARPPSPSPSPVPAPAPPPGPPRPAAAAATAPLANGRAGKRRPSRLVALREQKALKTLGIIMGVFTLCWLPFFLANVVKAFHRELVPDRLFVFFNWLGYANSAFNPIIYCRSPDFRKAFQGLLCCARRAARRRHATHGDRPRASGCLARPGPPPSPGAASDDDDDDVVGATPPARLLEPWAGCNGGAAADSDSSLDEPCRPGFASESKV

Compound	AC50 [1]	AC50 [2]	AC50 [3]	AC50 [4]	AC50 (Glucocorticoid receptor)	AC50 [5]	AC50 [6]	AC50 [7]	AC50 [8]	AC50 (Thromboxane A2 receptor)
CCOCC(O)COc1ccc(NC(=O)CC[S+](C)C)cc1 (stereo not drawn)	> 30 µM	> 30 µM	> 30 µM	> 30 µM						
CCC[C@@]1(CCc2ccccc2)CC(O)=C([C@H](CC)c2cccc(NS(=O)(=O)c3ccc(C(F)(F)F)cn3)c2)C(=O)O1	> 30 µM	> 30 µM	11 µM	4.7 µM						
CN(C)CCc1c[nH]c2ccc(CS(=O)(=O)N3CCCC3)cc12 [ALMOTRIPTAN]	> 30 µM	13 µM	> 30 µM							
CC[N+](CC)(CCNC(=O)C(=O)NCC[N+](CC)(CC)Cc1ccccc1Cl)Cc1ccccc1Cl [AMBENONIUM]	> 30 µM	> 30 µM	> 30 µM							
NCCCNCCSP(=O)(O)O [AMIFOSTINE]	> 30 µM				> 30 µM					
CN1CC2c3ccccc3Oc3ccc(Cl)cc3C2C1 (stereo not drawn) [ASENAPINE]	> 30 µM	> 30 µM	0.0002 µM	0.0014 µM						
Cn1cnc2c(F)c(Nc3ccc(Br)cc3F)c(C(=O)NOCCO)cc21 [BINIMETINIB]	> 30 µM	> 30 µM	> 30 µM	> 30 µM						
C[C@H](CCC(=O)O)[C@H]1CC[C@H]2[C@@H]3[C@H](O)C[C@@H]4C[C@H](O)CC[C@]4(C)[C@H]3CC[C@]12C [CHENODIOL]	> 30 µM	> 30 µM	> 30 µM	19 µM						
O=C(O)[C@H]1/C(=C/CO)O[C@@H]2CC(=O)N21 [CLAVULANIC ACID]	> 30 µM	> 30 µM	> 30 µM	> 30 µM						
O=c1[nH]cc(F)c(=O)[nH]1 [FLUOROURACIL]	> 30 µM				> 30 µM	> 30 µM	> 30 µM	> 30 µM	> 30 µM	> 30 µM
C[C@@H](O)[C@H]1C(=O)N2C(C(=O)O)=C(SCCN=CN)C[C@H]12 [IMIPENEM ANHYDROUS]	> 300 µM	> 300 µM	> 300 µM	> 300 µM						
CC(=O)NC[C@H]1CN(c2ccc(N3CCOCC3)c(F)c2)C(=O)O1 [LINEZOLID]	> 30 µM			> 30 µM	> 30 µM					
Cc1cc(C)cc(OCC2CNC(=O)O2)c1 (stereo not drawn) [METAXALONE]						> 30 µM	> 30 µM	> 30 µM	10.2 µM	> 30 µM
CO[C@@]1(NC(=O)C(C(=O)O)c2ccc(O)cc2)C(=O)N2C(C(=O)O)=C(CSc3nnnn3C)CO[C@@H]21 (stereo partly drawn) [MOXALACTAM]						> 30 µM	> 30 µM	> 30 µM	> 30 µM	> 30 µM
CS(=O)(=O)Nc1ccc([N+](=O)[O-])cc1Oc1ccccc1 [NIMESULIDE]	> 30 µM			> 30 µM		> 30 µM	> 30 µM	> 30 µM	> 30 µM	> 30 µM
CO[C@@H]1[C@@H](OC(N)=O)[C@@H](O)[C@H](Oc2ccc3c(O)c(NC(=O)c4ccc(O)c(CC=C(C)C)c4)c(=O)oc3c2C)OC1(C)C [NOVOBIOCIN]	> 30 µM	> 30 µM	> 30 µM	> 30 µM						
CCCCCCCC/C=C\CCCCCCCC(=O)O [OLEIC ACID]						> 30 µM	> 30 µM	> 30 µM	27.2 µM	25.3 µM
CC1=C(C/C=C(\C)CCC[C@H](C)CCC[C@H](C)CCCC(C)C)C(=O)c2ccccc2C1=O [PHYTONADIONE]						> 30 µM	> 30 µM	> 30 µM	> 30 µM	> 30 µM
NC(=O)C1(N2CCCCC2)CCN(CCCC(=O)c2ccc(F)cc2)CC1 [PIPAMPERONE]						> 30 µM	5.47 µM	> 30 µM	> 30 µM	> 30 µM
COc1cccc2c1C(=O)c1c(O)c3c(c(O)c1C2=O)C[C@@](O)(C(=O)CO)C[C@@H]3O[C@H]1C[C@H](N)[C@H](O[C@@H]2CCCCO2)[C@H](C)O1 [PIRARUBICIN]						> 1 µM	> 30 µM	> 30 µM	> 30 µM	> 10 µM
CC(C)(Oc1ccc(Cl)cc1)C(=O)NC(=O)NCN1CCOCC1 [PLAFIBRIDE]						> 30 µM	> 30 µM	> 30 µM	> 30 µM	> 30 µM
CC(C)NC[C@H](O)COc1ccc(O)cc1 [PRENALTEROL]						> 30 µM	> 30 µM	> 30 µM	4.55 µM	> 30 µM
COc1cc2c(cc1OC)C1CC(=O)C(CC(C)C)CN1CC2 (stereo not drawn) [TETRABENAZINE]	> 30 µM	> 30 µM	> 30 µM	> 30 µM						
CC(C)(CO)c1cc2cc(NC(=O)C3(c4ccc5c(c4)OC(F)(F)O5)CC3)c(F)cc2n1C[C@@H](O)CO [TEZACAFTOR]	> 30 µM	> 30 µM	16 µM	> 10 µM						
CN1CCC(N(Cc2cccs2)c2ccccc2)CC1 [THENALIDINE]						> 30 µM	8.45 µM	0.699 µM	0.399 µM	> 30 µM
Cc1ccc(C(C)C)c(O)c1 [THYMOL]						> 30 µM	> 30 µM	> 30 µM	23.3 µM	> 30 µM
c1cnc2cc3c(cc2n1)[C@@H]1CNC[C@H]3C1 [VARENICLINE]	> 30 µM	> 30 µM	> 30 µM	> 30 µM						
Nc1c2c(nc3ccccc13)CCCC2O (stereo not drawn) [VELNACRINE]	> 30 µM	> 30 µM	> 30 µM	> 30 µM						
Cc1cccc(C)c1NC(=O)c1cc(S(N)(=O)=O)c(Cl)cc1O [XIPAMIDE]						> 30 µM	> 30 µM	> 30 µM	> 30 µM	> 30 µM
